In assay [1] the test system is 5-LO. In words: In vitro antigen (ovalbumin)-induced contraction of sensitized guinea pig tracheal strips, Schultz-Dale reaction (Inhibition of 5-LO). Type of assay: cell-based. Conditions: Cavia porcellus, antigen (OA) 30 ng/ml, 30 min preincubation, with indomethacin 5 μM and pyrilamine 10 μM. Here is the method:
Male, Hartley strain guinea-pigs (200-250 g) were actively sensitized by three injections of ovalbumin (OA, 10 mg/kg). The OA was administered intraperitoneally on Days 1 and 3 and subcutaneously on Day 5. In vitro experiments were performed 21-25 days later.
On the day of the experiment, guinea pigs were killed by asphyxiation with CO2 and the tracheas removed, cleaned of surrounding connective tissue and cut into spiral strips. Each strip was divided in half for paired experiments. Tissues were placed in 10 ml jacketed tissue baths maintained at 37° C. and attached with cotton thread to Grass force-displacement transducers (FT03C). […] Tracheal strips were bathed in modified Krebs' solution of the following composition (millimolar) NaCl, 118.2;KCl, 4.6; CaCl2.2H2 O, 2.5; MgSO4.7H2 O, 1.2; NaHCO3,24.8; KH2 PO4, 1.0; and dextrose, 10.0. The buffer contained indomethacin (5 μM) which potentiated the contractions of the cysteinyl leukotriene (LT) by removing the influence of cyclooxygenase products. The tissue baths were aerated with 95% O2 :5% CO2. Tracheal strips were placed under a resting tension of 2 g, and the tissues were allowed a minimal stabilization period of 60 minutes before undergoing experimentation. Bath fluid was changed at 15 minute intervals during the stabilization period.
Cumulative concentration-response curves were obtained from tracheal strips by increasing the agonist concentration in the organ bath by half-log increments while the previous concentration remained in contact with the tissues (van Rossum, Arch. Int. Pharmacodyn. Ther., 143, 299-330 (1963)). Agonist concentration was increased after reaching the plateau of the contraction elicited by the preceeding concentration. One concentration-response curve was obtained from each tissue. To minimize variability between tissues, contractile responses were expressed as a percentage of the maximal response obtained with carbachol (10 μM), added to the bath at the end of the concentration-response curve. Initially, tissues were challenged with carbachol (10 μM) following the 60 minute stabilization period to insure tissue viability. After recording the maximal response to the initial carbachol challenge, the tissues were washed and reequilibrated for 60 minutes before starting the experimental protocol.
To evaluate the effects of novel 5-lipoxygenase inhibitors in the Schultz-Dale reaction, each compound was incubated with the tissues 30 minutes before starting the curves. Vehicle (DMSO) was given to the paired control tissue. Pyrilamine (10 μM) was added to all baths at this time to block the actions of released histamine. Responses obtained at the antigen concentration of 30 ng/ml were recorded in the absence and presence of drug and percent inhibition was calculated for each pair of tissues. IC50 valves were determined by linear regression.

The subject of assay [2] is 5-LO. As to the kind of experiment: In vivo ovalbumin-induced increase in intratracheal pressure in passively sensitized guinea pigs (Inhibition of 5-LO). The conditions noted are these: OA-induced increase in tracheal pressure; for Inhibition of 5-LO In Vivo Percent Inhibition (dose of 10 mg/kg): dose of 10 mg/kg (footnote a), po, 2 hr. On the set-up: species or system guinea pig. Here is the method: Male Hartley guinea pigs (350-500 g) were passively sensitized against ovalbumin by i.p. administration of 0.3 ml of antiserum 2 days preceeding the experiment. Hyperimmune serum was prepared from actively sensitizing male guinea pigs conditioned with 2 mg of ovalbumin in 50% Complete Freund's Adjuvant i.p. on days 1 and 5. On day 21, the animals were bled and the serum collected and stored at -20° C. On the day of the experiment the passively sensitized guinea pigs were anesthetized with 35 to 40 mg/kg of pentobarbital sodium given i.p. The right jugular vein was cannulated with Tygon microbore tubing (o.d.=03) connected to a syringe for administration of selected drugs. Blood pressure was measured with a Statham pressure transducer connected to a Tygon catheter placed in the left carotid artery. The trachea was cannulated and each animal was ventilated with room air by means of a Harvard rodent respirator set to deliver a tidal volume of 1 ml/100 g body weight with a rate of 60 breaths/minute. Succinylcholine (5 mg/kg) was given i.v. to suppress spontaneous respiration. Intratracheal pressure, an index of total pulmonary resistance, was measured with a Statham pressure transducer connected to a T-tube on the tracheal cannula. […] Body temperature was maintained within normal limits by means of a Deltaphase isothermal pad. Prior to surgery, test compound or vehicle (PEG 400) was administered to each guinea pig by oral gavage and OA challenge was at designated times following oral dosing. The animals were pretreated i.v. with pyrilamine (5 mg/kg), propranolol (1 mg/kg) and indomethacin (10 mg/kg) 5 minutes prior to the OA challenge. OA-induced increase in tracheal pressure was expressed as a percentage of the maximal pressure obtained by clamping the trachea with a hemistat. To determine the effect of each drug, a % inhibition value was calculated from the vehicle and drug treated animals at each concentration tested.

SMILES strings stand for the structures.

Take `NC(=O)N(O)C/C=C/c1c(F)cccc1Sc1ccc(Cl)cc1` [Example 8]: in the assay on 5-LO [1], the 50% inhibitory concentration (IC50) amounted to 130 nM. The “Inhibition of 5-LO In Vivo Percent Inhibition at 30 mg/kg, po, 2 hr.” value in the assay with 5-LO [2] is listed as 46%.
Taken in the same sequence, the figures for `NC(=O)N(O)C/C=C/c1c(F)cccc1Sc1ccc(F)cc1` [Example 1, N-hydroxy-N-[3-[2-(4-fluorophenylthio)-6-fluorophenyl]-prop-2-enyl]urea] were 50 nM and 97%.
Regarding `NC(=O)N(O)C/C=C/c1ccccc1Sc1ccc(Cl)cc1` [Example 5, N-hydroxy-N-[3-[2-(4-chlorophenylthio)phenyl]prop-2-enyl]urea], the 50% inhibitory concentration (IC50) in the assay with 5-LO [1] was determined as 140 nM. In the assay on 5-LO [2], the “Inhibition of 5-LO In Vivo Percent Inhibition at 30 mg/kg, po, 2 hr.” value was 95%.
In the case of `NC(=O)N(O)C/C=C/c1cccc(F)c1Sc1ccc(Cl)cc1` [Example 7, N-hydroxy-N-[3-[2-(4-chlorophenylthio)-3-fluorophenyl]prop-2-enyl]urea], in the assay on 5-LO [1], the IC50 worked out at 90 nM. In addition, the “Inhibition of 5-LO In Vivo Percent Inhibition (dose of 10 mg/kg)” value in the assay on 5-LO [2] is recorded as 77%.
Taken in the same sequence, the figures for `NC(=O)N(O)C/C=C/c1ccc(F)cc1Sc1ccc(F)cc1` [Example 3, N-hydroxy-N-[3-[2-(4-fluorophenylthio)-4-fluorophenyl]prop-2-enyl]urea] were 190 nM and 43%.
For `NC(=O)N(O)C/C=C/c1ccccc1Sc1ccc(F)cc1` [Example 2, N-hydroxy-N-[3-[2-(4-fluorphenylthio)phenyl]prop-2-enyl]urea], in the assay with 5-LO [1], the concentration for half-maximal inhibition (IC50) stood at 100 nM. For the same molecule, the “Inhibition of 5-LO In Vivo Percent Inhibition at 30 mg/kg, po, 2 hr.” value in the assay on 5-LO [2] is listed as 96%.
For `NC(=O)N(O)C/C=C/c1cc(F)ccc1Sc1ccc(F)cc1` [Example 4, N-hydroxy-N-[3-[2-(4-fluorophenylthio)-5-fluorophenyl]prop-2-enyl]urea], in the assay with 5-LO [1], the IC50 turned out to be 230 nM. In addition, the “Inhibition of 5-LO In Vivo Percent Inhibition at 30 mg/kg, po, 2 hr.” value in the assay on 5-LO [2] is 52%.
As to `NC(=O)N(O)C/C=C/c1cccc(F)c1Sc1ccc(F)cc1` [Example 6, N-hydroxy-N-[3-[2-(4-fluorophenylthio)-3-fluorophenyl]prop-2-enyl]urea], the concentration for half-maximal inhibition (IC50) with 5-LO [1] turned out to be 130 nM. The “Inhibition of 5-LO In Vivo Percent Inhibition at 30 mg/kg, po, 2 hr.” value in the assay on 5-LO [2] is 81%.

Usually IC50 stands for the concentration needed to halve the response being measured.

The values are drawn from US5283361A, “N-hydroxy-N-[3-[2-(halophenylthio)phenyl]prop-2-enyl]ureas as lipoxygenase inhibitors” (Eli Lilly and Company, priority 1992, dated 1994).
